Source: ChEMBL document CHEMBL3046365, “Insecticidal Activity of Pyridalyl: Acute and Sub-Acute Symptoms in Spodoptera litura Larvae” (2004)
Active and inactive are the calls of the source. No cut-off for these calls is given here.

How the values were obtained:
[1] = test system: Spodoptera litura; assay: Insecticidal activity against fifth-instar Spodoptera litura larvae assessed as mortality compound applied topically measured after 3 days; type: functional
[2] = test system: Spodoptera litura; assay: Acute insecticidal activity against fifth-instar Spodoptera litura larvae assessed as mortality at 50 ng applied topically measured after 6 hr; type: functional, organism-based
[3] = test system: Spodoptera litura; assay: Insecticidal activity against fifth-instar Spodoptera litura larvae assessed as burn scar on the area where compound applied at 1.56 to 6.25 ng applied topically measured after 4 days; type: functional, organism-based
[4] = test system: Spodoptera litura; assay: Acute insecticidal activity against fifth-instar Spodoptera litura larvae assessed as mortality at 400 ng applied topically measured after 2 hr; type: functional
[5] = test system: Spodoptera litura; assay: Acute insecticidal activity against fifth-instar Spodoptera litura larvae assessed as decrease in body elasticity at 50 to 400 ng applied topically; type: functional, organism-based
[6] = test system: Spodoptera litura; assay: Acute insecticidal activity against fifth-instar Spodoptera litura larvae assessed as decrease in vigor at 50 to 400 ng applied topically; type: functional, organism-based
[7] = test system: Spodoptera litura; assay: Acute insecticidal activity against fifth-instar Spodoptera litura larvae assessed as mortality at 50 ng applied topically measured within 3 days; type: functional
[8] = test system: Spodoptera litura; assay: Insecticidal activity against fifth-instar Spodoptera litura larvae assessed as mortality compound applied topically measured after 1 day; type: functional
[9] = test system: Spodoptera litura; assay: Acute insecticidal activity against fifth-instar Spodoptera litura larvae assessed as decrease in mobility at 50 to 400 ng applied topically; type: functional, organism-based
[10] = test system: Spodoptera litura; assay: Acute insecticidal activity against fifth-instar Spodoptera litura larvae assessed as mortality at 200 ng applied topically measured after 1 hr; type: functional, organism-based
[11] = test system: Spodoptera litura; assay: Acute insecticidal activity against fifth-instar Spodoptera litura larvae assessed as mortality at 100 ng applied topically measured after 6 hr; type: functional
[12] = test system: Spodoptera litura; assay: Insecticidal activity against fifth-instar Spodoptera litura larvae assessed as mortality at 1.56 to 25 ng applied topically measured after 5 days; type: functional, organism-based
[13] = test system: Spodoptera litura; assay: Insecticidal activity against fifth-instar Spodoptera litura larvae assessed as mortality compound applied topically measured after 2 days; type: functional
[14] = test system: Spodoptera litura; assay: Insecticidal activity against fifth-instar Spodoptera litura larvae at 1.56 to 25 ng applied topically measured up to 1 day; type: functional, organism-based
[15] = test system: Spodoptera litura; assay: Insecticidal activity against fifth-instar Spodoptera litura larvae assessed as mortality at 25 ng applied topically measured after 5 days; type: functional, organism-based
[16] = test system: Spodoptera litura; assay: Insecticidal activity against fifth-instar Spodoptera litura larvae assessed as inhibition of emergence as adult at 1.56 to 25 ng applied topically; type: functional, organism-based
[17] = test system: Spodoptera litura; assay: Acute insecticidal activity against fifth-instar Spodoptera litura larvae assessed as mortality at 200 ng applied topically measured after 3 hr; type: functional
[18] = test system: Spodoptera litura; assay: Insecticidal activity against fifth-instar Spodoptera litura larvae assessed as abnormal body shape at 1.56 to 25 ng applied topically; type: functional, organism-based
[19] = test system: Spodoptera litura; assay: Acute insecticidal activity against fifth-instar Spodoptera litura larvae assessed as flaccid paralysis at 50 to 400 ng applied topically; type: functional, organism-based
[20] = test system: Spodoptera litura; assay: Acute insecticidal activity against fifth-instar Spodoptera litura larvae assessed as mortality at 400 ng applied topically measured after 1 hr; type: functional, organism-based
[21] = test system: Spodoptera litura; assay: Insecticidal activity against fifth-instar Spodoptera litura larvae assessed as inhibition of ecdysis at 1.56 to 25 ng applied topically measured after 5 days; type: functional, organism-based

With `FC(F)(F)c1ccc(OCCCOc2c(Cl)cc(OCC=C(Cl)Cl)cc2Cl)nc1` [PYRIDALYL] as the compound, how does the LD50 [1] read?
The LD50 was 24.4 ng.

What about the Activity [2] of the same compound?
The Activity was “inactive”.

And the Activity [3]?
The Activity was “Active”.

And the mortality [4]?
The mortality was 100%.

What about the Activity [5] of the same compound?
The Activity was “Active”.

What about the Activity [6] of the same compound?
Its Activity is “Active”.

And the mortality [7]?
The mortality was over 50%.

What about the LD50 [8] of the same compound?
The LD50 was 57.3 ng.

What about the Activity [9] of the same compound?
The Activity was “Active”.

And the Activity [10]?
Its Activity is “Active”.

What about the mortality [11] of the same compound?
Its mortality is 100%.

What about the inhibition [12] of the same compound?
The inhibition was “Active”.

What about the LD50 [13] of the same compound?
Its LD50 is 50.1 ng.

And the Activity [14]?
The Activity was “inactive”.

And the Activity [15]?
The Activity was “Active”.

And the Activity [16]?
Its Activity is “Active”.

What about the mortality [17] of the same compound?
Its mortality is 100%.

What about the inhibition [18] of the same compound?
The inhibition was “Active”.

What about the Activity [19] of the same compound?
Its Activity is “Active”.

And the Activity [20]?
Its Activity is “Active”.

What about the Activity [21] of the same compound?
The Activity was “Active”.
